Literature values, collected in patent publication US20250099590A1, “HIGH DENSITY ULTRASOUND COUPLING GEL AND METHODS OF USE THEREOF” (ZetrOZ Systems LLC, priority 2023, published 2025).

Columns and labels:
musculoskeletal injuries = settings: SAM with 2.5% diclofenac, after 4-weeks of daily home-use
[1] = system: osteoarthritis-induced pain; settings: SAM treatment with 1% topical diclofenac, after 7 days

O=C(O)Cc1ccccc1Nc1c(Cl)cccc1Cl [diclofenac]
global health and function (musculoskeletal injuries): global health and functional improvement | pain (musculoskeletal injuries): significant pain reduction | Western Ontario McMaster Outcome (WOMAC) [1]: improved | osteoarthritis-induced pain [1]: significantly alleviated
